“And” between values parts separate entries of the source, which are not always exact repeats. Equal values may be shown once.
Key:
Thyroid Hormone = assay: LeadProfilingScreen radioligand binding; set-up: species or system rat
Dopamine D3 = Dopamine D3 (Homo sapiens, UniProt P35462); assay: LeadProfilingScreen radioligand binding
Dopamine D2S = Dopamine D2S (Homo sapiens, UniProt P14416); assay: LeadProfilingScreen radioligand binding
[1] = molecular target: Platelet Activating Factor (PAF) (Homo sapiens, UniProt P25105); assay: LeadProfilingScreen radioligand binding
[2] = Multispecies hepatocyte MetID; assay type: in vitro ADME, minipig; details: 4 h incubation with hepatocytes, 10 μM
[3] = molecular target: Serotonin (5-Hydroxytryptamine) 5-HT1A (Homo sapiens, UniProt P08908); assay: LeadProfilingScreen radioligand binding
Cannabinoid CB1 = Cannabinoid CB1 (Homo sapiens, UniProt P21554); assay: LeadProfilingScreen radioligand binding
Adrenergic β1 = Adrenergic β1 (Homo sapiens, UniProt P08588); assay: LeadProfilingScreen radioligand binding
CYP3A4 = CYP3A4 (Homo sapiens, UniProt P08684); assay: CYP450 inhibition; assay type: in vitro ADME; details: read-out: CYP450 Inhibition, 3A4
CYP3A4, sequence (P08684 whole entry, species assumed): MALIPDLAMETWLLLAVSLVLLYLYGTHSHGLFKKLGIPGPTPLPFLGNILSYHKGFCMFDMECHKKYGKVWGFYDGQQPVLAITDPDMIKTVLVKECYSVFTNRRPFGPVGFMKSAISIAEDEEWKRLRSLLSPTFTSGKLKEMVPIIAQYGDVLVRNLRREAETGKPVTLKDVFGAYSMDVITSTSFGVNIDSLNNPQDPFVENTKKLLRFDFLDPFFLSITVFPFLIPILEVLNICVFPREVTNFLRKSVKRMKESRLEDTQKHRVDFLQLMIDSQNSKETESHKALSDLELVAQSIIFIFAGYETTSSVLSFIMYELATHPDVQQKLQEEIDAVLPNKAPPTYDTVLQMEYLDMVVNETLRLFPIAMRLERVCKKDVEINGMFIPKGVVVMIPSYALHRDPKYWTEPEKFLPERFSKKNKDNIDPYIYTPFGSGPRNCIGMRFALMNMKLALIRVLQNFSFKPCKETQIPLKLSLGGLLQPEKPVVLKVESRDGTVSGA

[4] = test system: Purinergic P2Y, Non-Selective; assay: LeadProfilingScreen radioligand binding; set-up: species or system rat
Endothelin ETA = Endothelin ETA (Homo sapiens, UniProt P25101); assay: LeadProfilingScreen radioligand binding
Glutamate, NMDA, Glycine = Glutamate, NMDA, Glycine (Rattus norvegicus, UniProt P35439); assay: LeadProfilingScreen radioligand binding
Glutamate, NMDA, Glycine, sequence (P35439 394-800 limits assumed): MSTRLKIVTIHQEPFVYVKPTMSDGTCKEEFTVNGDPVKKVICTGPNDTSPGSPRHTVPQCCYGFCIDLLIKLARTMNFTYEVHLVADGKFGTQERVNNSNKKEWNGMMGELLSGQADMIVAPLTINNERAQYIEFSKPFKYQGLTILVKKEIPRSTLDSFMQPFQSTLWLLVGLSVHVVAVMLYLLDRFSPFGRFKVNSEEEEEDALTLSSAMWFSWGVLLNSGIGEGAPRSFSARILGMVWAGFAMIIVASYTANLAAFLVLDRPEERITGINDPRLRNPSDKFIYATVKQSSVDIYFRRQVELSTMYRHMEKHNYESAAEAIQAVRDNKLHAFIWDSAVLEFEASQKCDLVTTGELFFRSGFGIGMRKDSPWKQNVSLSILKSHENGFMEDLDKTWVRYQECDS

Neuropeptide Y Y2 = Neuropeptide Y Y2 (Homo sapiens, UniProt P49146); assay: LeadProfilingScreen radioligand binding
[5] = test system: Calcium Channel L-Type, Benzothiazepine; assay: LeadProfilingScreen radioligand binding; set-up: species or system rat
Prostanoid EP4 = Prostanoid EP4 (Homo sapiens, UniProt P35408); assay: LeadProfilingScreen radioligand binding
[6] = Multispecies hepatocyte MetID; assay type: in vitro ADME, cynomolgus monkey; details: 4 h incubation with hepatocytes, 10 μM
Procedure: Metabolites were identified after preincubating each compound at a 10 μM final concentration with 2.5 × 10^5 hepatocytes from human, dog, cynomolgus monkey, and rat in 200 μL of Optiincubate buffer (BioIVT, Westbury, NY). […] After centrifugation, 60 μL of the supernatant was transferred to 60 μL of water for LC-MS analysis. Samples were analyzed using a Thermo Scientific Vanquish UHPLC consisting of a VH-P10-A pump, a VH-A10-A sampler module, a VH-C10-A column compartment, and the VF-D11-A UV detector coupled to an Orbitrap Fusion Lumos instrument with UVPD. A binary solvent system consisting of (A) water with 0.1% formic acid and (B) acetonitrile with 0.1% formic acid was used with an Accucore Vanquish C18+, 2.1 mm × 100 mm, 1.5 μm, UHPLC column maintained at 40 °C. The data generated by data-dependent acquisition via normal acquisition and AcquireX were processed manually with Thermo Scientific FreeStyle and assisted by Compound Discoverer 3.3.1.111 to aid in the structural assignments.

Calcium Channel N-Type = Calcium Channel N-Type (Rattus norvegicus, UniProt Q02294); assay: LeadProfilingScreen radioligand binding
Calcium Channel N-Type, sequence (Q02294 whole entry): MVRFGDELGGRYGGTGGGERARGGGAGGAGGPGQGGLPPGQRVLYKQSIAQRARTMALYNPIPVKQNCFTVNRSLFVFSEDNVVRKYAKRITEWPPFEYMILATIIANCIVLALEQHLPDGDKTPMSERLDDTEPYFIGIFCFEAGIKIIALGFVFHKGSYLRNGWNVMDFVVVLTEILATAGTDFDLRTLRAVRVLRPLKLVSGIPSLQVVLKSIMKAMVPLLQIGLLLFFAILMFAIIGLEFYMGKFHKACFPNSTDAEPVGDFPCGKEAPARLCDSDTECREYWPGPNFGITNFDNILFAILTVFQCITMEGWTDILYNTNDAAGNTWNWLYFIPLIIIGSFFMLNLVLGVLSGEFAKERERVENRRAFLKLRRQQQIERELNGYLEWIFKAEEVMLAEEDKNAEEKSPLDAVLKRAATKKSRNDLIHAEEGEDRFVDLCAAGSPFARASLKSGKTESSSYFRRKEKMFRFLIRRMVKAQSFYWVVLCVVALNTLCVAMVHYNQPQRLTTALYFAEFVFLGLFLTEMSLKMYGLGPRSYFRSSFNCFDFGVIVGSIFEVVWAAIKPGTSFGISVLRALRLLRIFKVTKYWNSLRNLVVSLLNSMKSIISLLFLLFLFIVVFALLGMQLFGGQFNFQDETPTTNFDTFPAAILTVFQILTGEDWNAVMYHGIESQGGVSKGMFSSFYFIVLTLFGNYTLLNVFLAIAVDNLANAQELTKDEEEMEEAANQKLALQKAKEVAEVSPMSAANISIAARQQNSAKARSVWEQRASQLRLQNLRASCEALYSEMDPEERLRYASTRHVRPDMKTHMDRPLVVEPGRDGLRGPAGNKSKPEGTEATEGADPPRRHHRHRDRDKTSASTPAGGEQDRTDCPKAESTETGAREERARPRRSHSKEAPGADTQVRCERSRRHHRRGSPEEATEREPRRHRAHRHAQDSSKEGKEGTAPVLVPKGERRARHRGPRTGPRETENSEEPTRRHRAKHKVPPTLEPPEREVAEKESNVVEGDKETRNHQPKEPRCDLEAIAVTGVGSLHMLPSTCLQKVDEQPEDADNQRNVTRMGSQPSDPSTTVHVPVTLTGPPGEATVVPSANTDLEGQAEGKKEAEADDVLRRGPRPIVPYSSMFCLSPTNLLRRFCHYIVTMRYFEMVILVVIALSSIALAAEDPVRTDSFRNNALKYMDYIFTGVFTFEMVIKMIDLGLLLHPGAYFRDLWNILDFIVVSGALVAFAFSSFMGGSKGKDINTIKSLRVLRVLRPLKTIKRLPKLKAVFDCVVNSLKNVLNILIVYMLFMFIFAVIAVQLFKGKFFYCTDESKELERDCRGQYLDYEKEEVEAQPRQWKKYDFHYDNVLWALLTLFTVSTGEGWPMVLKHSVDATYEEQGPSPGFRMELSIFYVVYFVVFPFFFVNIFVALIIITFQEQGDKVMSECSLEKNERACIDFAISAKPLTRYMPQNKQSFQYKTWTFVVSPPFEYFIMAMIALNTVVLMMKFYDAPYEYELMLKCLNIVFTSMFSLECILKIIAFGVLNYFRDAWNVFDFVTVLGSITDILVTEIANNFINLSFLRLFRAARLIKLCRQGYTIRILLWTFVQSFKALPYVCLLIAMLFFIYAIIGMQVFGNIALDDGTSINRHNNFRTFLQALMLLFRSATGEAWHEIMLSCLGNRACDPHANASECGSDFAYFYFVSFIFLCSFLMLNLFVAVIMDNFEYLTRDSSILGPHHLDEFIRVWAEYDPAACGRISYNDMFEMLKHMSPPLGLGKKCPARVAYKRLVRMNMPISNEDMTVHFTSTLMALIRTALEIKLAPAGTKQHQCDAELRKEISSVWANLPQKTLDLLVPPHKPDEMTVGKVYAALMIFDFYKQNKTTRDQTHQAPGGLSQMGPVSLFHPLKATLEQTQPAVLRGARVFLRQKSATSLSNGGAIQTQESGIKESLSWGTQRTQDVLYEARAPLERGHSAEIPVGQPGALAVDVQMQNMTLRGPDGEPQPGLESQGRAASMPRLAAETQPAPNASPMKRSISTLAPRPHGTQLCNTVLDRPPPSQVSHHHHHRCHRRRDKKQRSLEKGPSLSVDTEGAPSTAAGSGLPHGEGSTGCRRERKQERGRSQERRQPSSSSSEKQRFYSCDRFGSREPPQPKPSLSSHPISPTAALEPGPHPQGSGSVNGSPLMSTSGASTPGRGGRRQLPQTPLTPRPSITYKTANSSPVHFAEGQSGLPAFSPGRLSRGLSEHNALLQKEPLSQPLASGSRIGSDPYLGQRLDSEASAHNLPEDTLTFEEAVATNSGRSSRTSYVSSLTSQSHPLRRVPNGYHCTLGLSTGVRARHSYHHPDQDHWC

[7] = molecular target: Transporter, Norepinephrine (NET) (Homo sapiens, UniProt P23975); assay: LeadProfilingScreen radioligand binding
Bradykinin B2 = Bradykinin B2 (Homo sapiens, UniProt P30411); assay: LeadProfilingScreen radioligand binding
Neuropeptide Y Y1 = Neuropeptide Y Y1 (Homo sapiens, UniProt P25929); assay: LeadProfilingScreen radioligand binding
[8] = molecular target: Serotonin (5-Hydroxytryptamine) 5-HT3 (Homo sapiens, UniProt P46098); assay: LeadProfilingScreen radioligand binding
Adenosine A1 = Adenosine A1 (Homo sapiens, UniProt P30542); assay: LeadProfilingScreen radioligand binding
Adenosine A1, sequence (P30542 whole entry): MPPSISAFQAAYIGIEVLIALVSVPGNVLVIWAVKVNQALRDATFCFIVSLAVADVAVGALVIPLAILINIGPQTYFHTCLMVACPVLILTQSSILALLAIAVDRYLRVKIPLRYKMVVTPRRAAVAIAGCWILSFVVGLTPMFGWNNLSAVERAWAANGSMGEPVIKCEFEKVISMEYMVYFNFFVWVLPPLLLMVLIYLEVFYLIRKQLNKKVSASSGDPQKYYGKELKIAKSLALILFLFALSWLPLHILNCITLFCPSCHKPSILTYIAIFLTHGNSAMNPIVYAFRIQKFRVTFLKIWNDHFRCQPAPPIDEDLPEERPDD

Potassium Channel [KATP] = Potassium Channel [KATP] (Cricetus cricetus, UniProt Q09427); assay: LeadProfilingScreen radioligand binding; set-up: species or system hamster
Procedure: Both lead compounds, VU6047606 and VU6032735, were subjected to radioligand binding assays in a Eurofins LeadProfilingScreen SafetyScreen Panel to detect potential adverse activity, relative selectivity, and off-target activity. Compounds were screened at 10 μM and percent inhibition was monitored across 68 potential off-target G protein-coupled receptors, ion channels, nuclear hormone receptors, and transporters. ,

Adenosine A2A = Adenosine A2A (Homo sapiens, UniProt P29274); assay: LeadProfilingScreen radioligand binding
Melatonin MT1 = Melatonin MT1 (Homo sapiens, UniProt P48039); assay: LeadProfilingScreen radioligand binding
Melatonin MT1, sequence (P48039 whole entry): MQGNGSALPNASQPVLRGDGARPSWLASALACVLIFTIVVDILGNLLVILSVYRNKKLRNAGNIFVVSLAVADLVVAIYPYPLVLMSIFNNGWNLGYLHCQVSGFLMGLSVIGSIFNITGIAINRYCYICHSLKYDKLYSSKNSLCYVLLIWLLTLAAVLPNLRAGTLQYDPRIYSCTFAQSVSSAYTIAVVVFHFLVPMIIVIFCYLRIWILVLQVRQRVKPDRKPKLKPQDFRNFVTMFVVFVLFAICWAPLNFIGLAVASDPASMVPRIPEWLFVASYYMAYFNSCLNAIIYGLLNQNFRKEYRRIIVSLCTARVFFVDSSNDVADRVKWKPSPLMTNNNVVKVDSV

Imidazoline I2, Central = assay: LeadProfilingScreen radioligand binding; set-up: species or system rat
Muscarinic M1 = Muscarinic M1 (Homo sapiens, UniProt P11229); assay: LeadProfilingScreen radioligand binding

Dopamine D3, sequence (P35462 whole entry): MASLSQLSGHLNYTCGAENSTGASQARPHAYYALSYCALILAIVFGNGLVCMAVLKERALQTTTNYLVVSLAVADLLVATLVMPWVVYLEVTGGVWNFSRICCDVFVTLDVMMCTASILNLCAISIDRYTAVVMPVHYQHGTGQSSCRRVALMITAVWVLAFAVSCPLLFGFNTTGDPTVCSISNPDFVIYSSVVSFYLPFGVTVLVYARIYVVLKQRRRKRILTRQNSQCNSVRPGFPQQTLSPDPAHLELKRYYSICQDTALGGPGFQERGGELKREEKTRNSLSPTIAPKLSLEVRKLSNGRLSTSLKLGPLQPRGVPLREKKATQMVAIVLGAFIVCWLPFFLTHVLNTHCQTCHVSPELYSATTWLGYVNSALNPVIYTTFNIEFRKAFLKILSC
Dopamine D2S, sequence (P14416 1-414 isoform P14416-2): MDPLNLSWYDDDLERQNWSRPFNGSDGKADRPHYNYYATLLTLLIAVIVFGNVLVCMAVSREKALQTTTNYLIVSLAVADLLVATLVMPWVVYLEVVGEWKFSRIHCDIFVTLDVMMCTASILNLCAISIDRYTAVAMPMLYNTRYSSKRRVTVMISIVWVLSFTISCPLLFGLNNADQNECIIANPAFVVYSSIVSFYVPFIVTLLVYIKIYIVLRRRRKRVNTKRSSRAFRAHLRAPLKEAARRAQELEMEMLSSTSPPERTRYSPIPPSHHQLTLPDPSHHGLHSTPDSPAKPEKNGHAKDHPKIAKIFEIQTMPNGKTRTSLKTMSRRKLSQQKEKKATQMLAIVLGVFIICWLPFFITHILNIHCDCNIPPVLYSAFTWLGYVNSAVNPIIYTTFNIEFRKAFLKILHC

For `Cc1cc(Cl)cc2sc(O[C@H]3CCN(C(=O)CCCS(=O)(=O)c4cccc(Br)c4)C[C@H]3F)nc12` [VU6047606], the “% inhibition at 10 μM” value (Thyroid Hormone) was 12%, the inhibition at 10 µM (Dopamine D3) was 19% and the inhibition at 10 µM (Dopamine D2S) was -7%. The inhibition at 10 µM [1] was 8%, the “% of Parent Related Material, Pig” value [2] was 93.66% and > 82% and the inhibition at 10 µM [3] was -2%. For the same compound, the inhibition at 10 µM (Cannabinoid CB1) was 27%, the inhibition at 10 µM (Adrenergic β1) was 11% and the IC50 (CYP3A4) was over 30 µM. For the same compound, the “% inhibition at 10 μM” value [4] was 7%, the inhibition at 10 µM (Endothelin ETA) was 5% and the inhibition at 10 µM (Glutamate, NMDA, Glycine) was -1%. For the same compound, the inhibition at 10 µM (Neuropeptide Y Y2) was 10%, the “% inhibition at 10 μM” value [5] was 49% and the inhibition at 10 µM (Prostanoid EP4) was 23%. For the same compound, the “% of Parent Related Material, Cyno” value [6] was 82.77% and > 82%, the inhibition at 10 µM (Calcium Channel N-Type) was -1% and the inhibition at 10 µM [7] was 44%. It also gave an inhibition at 10 µM (Bradykinin B2) of 4%, an inhibition at 10 µM (Neuropeptide Y Y1) of -16% and an inhibition at 10 µM [8] of -17%. For the same compound, the inhibition at 10 µM (Adenosine A1) was 5%, the inhibition at 10 µM (Potassium Channel [KATP]) was -5% and the inhibition at 10 µM (Adenosine A2A) was 0%. For the same compound, the inhibition at 10 µM (Melatonin MT1) was 19%, the “% inhibition at 10 μM” value (Imidazoline I2, Central) was 9% and the inhibition at 10 µM (Muscarinic M1) was 6%.

In the case of `O=C(c1ccc(OCc2ccc(OC(F)(F)F)cc2)cc1)N1CCN(c2ccc(C(F)(F)F)cn2)CC1` [VU6032735], the “% inhibition at 10 μM” value (Thyroid Hormone) is reported as 4%, the inhibition at 10 µM (Dopamine D3) is reported as 3% and the inhibition at 10 µM (Dopamine D2S) is reported as -2%. The inhibition at 10 µM [1] was -2%, the “% of Parent Related Material, Pig” value [2] was over 98% and the inhibition at 10 µM [3] was -1%. The inhibition at 10 µM (Cannabinoid CB1) was 32%, the inhibition at 10 µM (Adrenergic β1) was 8% and the IC50 (CYP3A4) was over 30 µM. The “% inhibition at 10 μM” value [4] was 24%, the inhibition at 10 µM (Endothelin ETA) was 9% and the inhibition at 10 µM (Glutamate, NMDA, Glycine) was -3%. The inhibition at 10 µM (Neuropeptide Y Y2) was 3%, the “% inhibition at 10 μM” value [5] was 67% and the inhibition at 10 µM (Prostanoid EP4) was -2%. For the same compound, the “% of Parent Related Material, Cyno” value [6] was over 98%, the inhibition at 10 µM (Calcium Channel N-Type) was 2% and the inhibition at 10 µM [7] was 30%. For the same compound, the inhibition at 10 µM (Bradykinin B2) was -1%, the inhibition at 10 µM (Neuropeptide Y Y1) was -1% and the inhibition at 10 µM [8] was -11%. The inhibition at 10 µM (Adenosine A1) was 12%, the inhibition at 10 µM (Potassium Channel [KATP]) was -7% and the inhibition at 10 µM (Adenosine A2A) was -6%. The inhibition at 10 µM (Melatonin MT1) was 8%, the “% inhibition at 10 μM” value (Imidazoline I2, Central) was -2% and the inhibition at 10 µM (Muscarinic M1) was -8%.
